This note sets out measurements from US6949542B2, “Dihydro-benzo[b][1,4]diazepin-2-one derivatives” (Hoffman-La Roche Inc., priority 2002, dated 2005).

One series has as its target T1, rat mGlu2 receptor (Rattus norvegicus, UniProt P31421).
T1 construct: expressed in transfected cells; vector pcD1mGR2
Put plainly: [3H]-LY354740 binding on mGlu2 transfected CHO cell membranes. The conditions noted are these: inhibition of 10 nM [3H]-LY354740 binding, mGlu2 transfected CHO cell membranes, room temperature, 1 hour; read-out: Ki mGlu2.

T1 sequence (P31421 19-872): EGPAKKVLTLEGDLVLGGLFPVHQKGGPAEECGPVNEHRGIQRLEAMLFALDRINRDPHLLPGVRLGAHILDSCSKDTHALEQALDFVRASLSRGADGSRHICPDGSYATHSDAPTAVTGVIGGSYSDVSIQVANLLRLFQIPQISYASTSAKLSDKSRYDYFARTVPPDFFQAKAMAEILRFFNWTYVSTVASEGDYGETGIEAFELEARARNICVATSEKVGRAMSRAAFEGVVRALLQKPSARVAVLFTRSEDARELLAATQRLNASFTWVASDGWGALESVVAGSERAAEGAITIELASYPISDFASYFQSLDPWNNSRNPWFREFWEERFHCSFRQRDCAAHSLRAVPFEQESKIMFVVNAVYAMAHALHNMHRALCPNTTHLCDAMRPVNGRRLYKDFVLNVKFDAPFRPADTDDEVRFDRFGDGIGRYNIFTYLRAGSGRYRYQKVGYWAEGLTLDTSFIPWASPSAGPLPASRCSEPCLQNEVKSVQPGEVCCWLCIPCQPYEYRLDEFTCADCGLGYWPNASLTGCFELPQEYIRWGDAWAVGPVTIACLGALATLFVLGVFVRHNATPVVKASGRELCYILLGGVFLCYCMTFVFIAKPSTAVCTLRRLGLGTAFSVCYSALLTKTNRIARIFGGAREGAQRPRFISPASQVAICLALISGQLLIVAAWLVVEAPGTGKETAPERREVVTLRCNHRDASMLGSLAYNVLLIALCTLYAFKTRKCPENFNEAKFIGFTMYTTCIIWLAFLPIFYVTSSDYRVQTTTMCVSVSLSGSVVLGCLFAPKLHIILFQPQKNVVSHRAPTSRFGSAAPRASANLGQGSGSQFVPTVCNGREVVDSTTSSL
Description for rat mGlu2 receptor: [^3H]-LY354740 Binding on mGlu2 Transfected CHO Cell Membranes
Transfection and Cell Culture
The cells were maintained in Dulbecco's Modified Eagle medium with reduced L-glutamine (2 mM final concentration) and 10% dialysed foetal calf serum from Gibco BRL (Basel, Switzerland).
Cells, cultured as above, were harvested and washed three times with cold PBS and frozen at −80° C. The pellet was resuspended in cold 20 mM HEPES-NaOH buffer containing 10 mM EDTA (pH 7.4), and homogenised with a polytron (Kinematica, AG, Littau, Switzerland) for 10 s at 10 000 rpm. After centrifugation for 30 min. at 4° C., the pellet was washed once with the same buffer, and once with cold 20 mM HEPES-NaOH buffer containing 0.1 mM EDTA, (pH 7.4). Protein content was measured using the Pierce method (Socochim, Lausanne, Switzerland) using bovine serum albumin as standard.
After thawing, the membranes were resuspended in cold 50 mM Tris-HCl buffer containing 2 mM MgCl2 and 2 mM CaCl2, (pH 7) (binding buffer). The final concentration of the membranes in the assays was 25 μg protein/ml. Inhibition experiments were performed with membranes incubated with 10 nM [^3H]-LY354740 at room temperature, for 1 hour, in presence of various concentrations of the compound to be tested. Following the incubations, membranes were filtered onto Whatmann GF/C glass fiber filters and washed 5 times with cold binding buffer. Non specific binding was measured in the presence of 10 μM DCG IV. After transfer of the filters into plastic vials containing 10 ml of Ultima-gold scintillation fluid (Packard, Zürich, Switzerland), the radioactivity was measured by liquid scintillation in a Tri-Carb 2500 TR counter (Packard, Zürich, Switzerland).
The inhibition curves were fitted with a four parameter logistic equation giving IC50 values, and Hill coefficients.

For the molecule `O=C1CC(c2cccc(-c3cccnc3)c2)=Nc2cc(Cl)c(Cl)cc2N1` [Example 1, 7,8-Dichloro-4-(3-pyridin-3-yl-phenyl)-1,3-dihydro-benzo[b][1,4]diazepin-2-one], at rat mGlu2 receptor, the Ki amounted to 1.35 nM.
Take `O=C1CC(c2cccc(-c3ccncc3)c2)=Nc2cc(Cl)c(Cl)cc2N1` [Example 2, 7,8-Dichloro-4-(3-pyridin-4-yl-phenyl)-1,3-dihydro-benzo[b][1,4]diazepin-2-one]: the melting point is 240 °C. For the same molecule, the Ki on rat mGlu2 receptor is 3.4 nM.
As for `CN(C)c1cc2c(cc1C(F)(F)F)NC(=O)CC(c1cccc(-c3cccnc3)c1)=N2` [Example 3, 7-Dimethylamino-4-(3-pyridin-3-yl-phenyl)-8-trifluoromethyl-1,3-dihydro-benzo[b][1,4]diazepin-2-one], the Ki at rat mGlu2 receptor came to 2.3 nM.
The same measure, in the same setting: for `CN(C)c1cc2c(cc1C(F)(F)F)NC(=O)CC(c1cccc(-c3ccncc3)c1)=N2` [Example 4, 7-Dimethylamino-4-(3-pyridin-4-yl-phenyl)-8-trifluoromethyl-1,3-dihydro-benzo[b][1,4]diazepin-2-one] the value was 6 nM.
In turn, `O=C1CC(c2cccc(-c3ccccn3)c2)=Nc2cc(Cl)c(Cl)cc2N1` [Example 5, 7,8-Dichloro-4-(3-pyridin-2-yl-phenyl)-1,3-dihydro-benzo[b][1,4]diazepin-2-one] yielded a melting point of 239 °C. Moreover, the Ki at rat mGlu2 receptor was 23.5 nM.
In the same order, the values of `Cc1ccc(-c2cccc(C3=Nc4ccc(C(F)(F)F)cc4NC(=O)C3)c2)cn1` [Example 9, 4-[3-(6-Methyl-pyridin-3-yl)-phenyl]-8-trifluoromethyl-1,3-dihydro-benzo[b][1,4]diazepin-2-one] are 215 to 218 °C and 5.5 nM.
In the same order, the values of `Cc1ccc(-c2cccc(C3=Nc4ccc(-c5ccccc5F)cc4NC(=O)C3)c2)cn1` [Example 12, 8-(2-Fluoro-phenyl)-4-[3-(6-methyl-pyridin-3-yl)-phenyl]-1,3-dihydro-benzo[b][1,4]diazepin-2-one] are 206 to 209 °C and 3.9 nM.
In turn, `Cc1ncccc1-c1cccc(C2=Nc3cc(N(C)C)c(C(F)(F)F)cc3NC(=O)C2)c1` [Example 13, 7-Dimethylamino-4-[3-(2-methyl-pyridin-3-yl)-phenyl]-8-trifluoromethyl-1,3-dihydro-benzo[b][1,4]diazepin-2-one] gave a melting point of 229 to 230 °C. At rat mGlu2 receptor, the Ki turned out to be 6 nM.
Take `Cc1ccc(-c2cccc(C3=Nc4ccc(-c5ccccc5F)cc4NC(=O)C3)c2)nn1` [Example 16, 8-(2-Fluoro-phenyl)-4-[3-(6-methyl-pyridazin-3-yl)-phenyl]-1,3-dihydro-benzo[b][1,4]diazepin-2-one]: the melting point amounted to 225 °C. The Ki on rat mGlu2 receptor was found to be 16.5 nM.
For the molecule `Cc1cc2c(cc1C(F)(F)F)N=C(c1cccc(-c3cccnc3)c1)CC(=O)N2` [Example 25, 8-Methyl-4-(3-pyridin-3-yl-phenyl)-7-trifluoromethyl-1,3-dihydro-benzo[b][1,4]diazepin-2-one], the melting point came out at 221 °C. Further, on rat mGlu2 receptor, the inhibition constant (Ki) was determined as 2.8 nM.
In the same order, the values of `O=C1CC(c2cccc(-c3cccnc3)c2)=Nc2ccc(Cl)cc2N1` [Example 28, 8-Chloro-4-(3-pyridin-3-yl-phenyl)-1,3-dihydro-benzo[b][1,4]diazepin-2-one] are 232 °C and 2 nM.
`O=C1CC(c2cccc(-c3ccncc3)c2)=Nc2cc(OCC(F)(F)F)c(C(F)(F)F)cc2N1` [Example 37, 4-(3-Pyridin-4-yl-phenyl)-7-(2,2,2-trifluoro-ethoxy)-8-trifluoromethyl-1,3-dihydro-benzo[b][1,4]diazepin-2-one]: the melting point was 221 to 222 °C (dec.). In addition, the Ki at rat mGlu2 receptor turned out to be 1.55 nM.
In the same order, the values of `COc1ccc(-c2cccc(C3=Nc4ccc(-c5ccccc5F)cc4NC(=O)C3)c2)nn1` [Example 41, 8-(2-Fluoro-phenyl)-4-[3-(6-methoxy-pyridazin-3-yl)-phenyl]-1,3-dihydro-benzo[b][1,4]diazepin-2-one] are 220 °C and 24.5 nM.
`COc1cc2c(cc1C(F)(F)F)NC(=O)CC(c1cccc(-c3ccccn3)c1)=N2` [Example 42, 7-Methoxy-4-(3-pyridin-2-yl-phenyl)-8-trifluoromethyl-1,3-dihydro-benzo[b][1,4]diazepin-2-one] yielded a melting point of 240 °C. For the same molecule, the Ki at rat mGlu2 receptor was found to be 27 nM.
In the same order, the values of `Cc1ccc(-c2cccc(C3=Nc4cc(N(C)C)c(C(F)(F)F)cc4NC(=O)C3)c2)c(C)n1` [Example 47, 7-Dimethylamino-4-[3-(2,6-dimethyl-pyridin-3-yl)-phenyl]-8-trifluoromethyl-1,3-dihydro-benzo[b][1,4]diazepin-2-one] are 187 to 189 °C and 22.5 nM.
As to `O=C1CC(c2cccc(-c3ccccn3)c2)=Nc2ccc(-n3cccc3)cc2N1` [Example 54, 4-(3-Pyridin-2-yl-phenyl)-8-pyrrol-1-yl-1,3-dihydro-benzo[b][1,4]diazepin-2-one], the Ki at rat mGlu2 receptor worked out at 32.6 nM.
Still for that read-out and setting: the result for `O=C1CC(c2cccc(-c3cccnc3)c2)=Nc2cc(OCC(F)(F)F)ccc2N1` [Example 57, 4-(3-Pyridin-3-yl-phenyl)-7-(2,2,2-trifluoro-ethoxy)-1,3-dihydro-benzo[b][1,4]diazepin-2-one] reads 6.2 nM; that for `Cc1cc2c(cc1Cl)NC(=O)CC(c1cccc(-c3ccncc3)c1)=N2` [Example 67, 8-Chloro-7-methyl-4-(3-pyridin-4-yl-phenyl)-1,3-dihydro-benzo[b][1,4]diazepin-2-one], 1.55 nM; that for `Cc1cc(-c2cccc(C3=Nc4ccc(-c5ccccc5F)cc4NC(=O)C3)c2)ccn1` [Example 72, 8-(2-Fluoro-phenyl)-4-[3-(2-methyl-pyridin-4-yl)-phenyl]-1,3-dihydro-benzo[b][1,4]diazepin-2-one], 1.8 nM.
Turning to `Cc1cc(-c2cccc(C3=Nc4cc(C)c(Cl)cc4NC(=O)C3)c2)ccn1` [Example 73, 8-Chloro-7-methyl-4-[3-(2-methyl-pyridin-4-yl)-phenyl]-1,3-dihydro-benzo[b][1,4]diazepin-2-one], the Ki at rat mGlu2 receptor was 2.7 nM.
On the same count and under the same terms, the result for `Cc1cc2c(cc1C(F)(F)F)NC(=O)CC(c1ccnc(-c3cccnc3)c1)=N2` [Example 290, 4-[2,3′]Bipyridinyl-4-yl-7-methyl-8-trifluoromethyl-1,3-dihydro-benzo[b][1,4]diazepin-2-one] reads 5 nM.
In the case of `CCOc1cc2c(cc1C(F)(F)F)NC(=O)CC(c1cccc(-c3cc(C)nc(CO)c3)c1)=N2` [Example 406, 7-Ethoxy-4-[3-(2-hydroxymethyl-6-methyl-pyridin-4-yl)-phenyl]-8-trifluoromethyl-1,3-dihydro-benzo[b][1,4]diazepin-2-one], the melting point was 225 °C.
The same measure, in the same setting: the result for `Cc1cc(-c2cccc(C3=Nc4ccc(C(F)(F)F)cc4NC(=O)C3)c2)cc(CO)n1` [Example 407, 4-[3-(2-Hydroxymethyl-6-methyl-pyridin-4-yl)-phenyl]-8-trifluoromethyl-1,3-dihydro-benzo[b][1,4]diazepin-2-one] reads 228 °C; that for `Cc1cc(-c2cccc(C3=Nc4cc(N(C)CC(C)C)c(C(F)(F)F)cc4NC(=O)C3)c2)cc(C)n1` [Example 408, 4-[3-(2,6-Dimethyl-pyridin-4-yl)-phenyl]-7-(isobutyl-methyl-amino)-8-trifluoromethyl-1,3-dihydro-benzo[b][1,4]diazepin-2-one], 215 °C; that for `Cc1cc(-c2cccc(C3=Nc4cc(N(C)C)c(C(F)(F)F)cc4NC(=O)C3)c2)cc(C)n1` [Example 409, 7-Dimethylamino-4-[3-(2,6-dimethyl-pyridin-4-yl)-phenyl]-8-trifluoromethyl-1,3-dihydro-benzo[b][1,4]diazepin-2-one], 256 °C.
The same measure, in the same setting: the result for `Cc1cc(-c2cccc(C3=Nc4cc(N5CCCC5)c(C(F)(F)F)cc4NC(=O)C3)c2)cc(C)n1` [Example 411, 4-[3-(2,6-Dimethyl-pyridin-4-yl)-phenyl]-7-pyrrolidin-1-yl-8-trifluoromethyl-1,3-dihydro-benzo[b][1,4]diazepin-2-one] reads 233 °C; that for `Cc1cc(-c2cccc(C3=Nc4cc(N(C)C(C)C)c(C(F)(F)F)cc4NC(=O)C3)c2)cc(C)n1` [Example 412, 4-[3-(2,6-Dimethyl-pyridin-4-yl)-phenyl]-7-(isopropyl-methyl-amino)-8-trifluoromethyl-1,3-dihydro-benzo[b][1,4]diazepin-2-one], 232 °C; that for `CCCN(C)c1cc2c(cc1C(F)(F)F)NC(=O)CC(c1cccc(-c3cc(C)nc(C)c3)c1)=N2` [Example 413, 4-[3-(2,6-Dimethyl-pyridin-4-yl)-phenyl]-7-(methyl-propyl-amino)-8-trifluoromethyl-1,3-dihydro-benzo[b][1,4]diazepin-2-one], 233 °C.
The molecule `Cc1cc(-c2cccc(C3=Nc4cc(C(F)(F)F)c(C(F)(F)F)cc4NC(=O)C3)c2)ccn1` [Example 414, 4-[3-(2-Methyl-pyridin-4-yl)-phenyl]-7,8-bis-trifluoromethyl-1,3-dihydro-benzo[b][1,4]diazepin-2-one] registered a melting point of 209 °C.
Still for that read-out and setting: for `Cc1cc(-c2cccc(C3=Nc4cc(C(F)(F)F)c(C(F)(F)F)cc4NC(=O)C3)c2)cc(C)n1` [Example 415, 4-[3-(2,6-Dimethyl-pyridin-4-yl)-phenyl]-7,8-bis-trifluoromethyl-1,3-dihydro-benzo[b][1,4]diazepin-2-one] the value was 220 °C; for `O=C1CC(c2cccc(-c3cccnc3)c2)=Nc2cc(C(F)(F)F)c(C(F)(F)F)cc2N1` [Example 416, 4-(3-Pyridin-3-yl-phenyl)-7,8-bis-trifluoromethyl-1,3-dihydro-benzo[b][1,4]diazepin-2-one], 210 °C.
Still for that read-out and setting: the result for `O=C1CC(c2cccc(-c3ccnc(CO)c3)c2)=Nc2cc(C(F)(F)F)c(C(F)(F)F)cc2N1` [Example 417, 4-[3-(2-Hydroxymethyl-pyridin-4-yl)-phenyl]-7,8-bis-trifluoromethyl-1,3-dihydro-benzo[b][1,4]diazepin-2-one] reads 209 °C.

By Ki is commonly meant the dissociation constant of the complex between target and ligand, obtained from inhibition or displacement. Broadly, the melting point is the temperature of the solid-liquid transition.
